In patent US20040029886A1, “Dihalopropene compounds, processes for their preparation, compositions comprising them and their use as pesticides” (priority 2001, published 2004):

Legend:
Format in all cases: in vivo
Parameters in all cases: key: compounds are considered to be active when, at a concentration of 500 ppm or less, their action on the harmful organisms is 50% or more
[1] = test system: larvae of the root gall nematode (Meloidogyne incognita); experiment: Example F: root gall nematode, contact action (part A) and soil drench action on cucumber (part B); settings: 500 ppm or less; part A 6 days exposure, part B root galls on cucumber after 2 weeks (Abbott's formula)
Experimental: (§1) In Examples A to L below, compounds are considered to be active when, at a concentration of 500 ppm or less, their action on the harmful organisms is 50% or more.
Part A of the examination (contact action): in a glass vessel, an aqueous solution of the formulated preparation to be examined was added to about 5000 freshly hatched active (mobile) larvae (2nd development stage) of the root gall nematode (Meloidogyne incognita) (final volume 20 ml). After 6 days of permanent exposure of the nematode larvae, the percentage of the individual larvae immobilized by the action of the preparation was determined in comparison to the untreated controls (nematicidal contact action in percent).
Part B of the examination (soil drench action): to this end, the entire solution from part A of the examination (active compound and pre-treated nematode larvae) was poured into a pot, filled with 60 ml of soil, into which three 9-day-old cucumber plants (Cucumis sativus) had been planted. This drench application reduced the active compound content based on the soil volume to one third of the active compound content in part A of the examination. After 2 weeks in a greenhouse at about 26° C. (watering: twice a day), the root balls of the cucumber plants were carefully washed out of the soil mixture contaminated with nematodes. The number of root galls per plant was counted and compared to the infection of untreated control plants. The reduction of the infection in percent as a criterion for the assessment of the activity was calculated using Abbott's formula (nematicidal soil drench action). The following examples were active: Nos. 6, 7, 29, 32, 34, 44, 356.

[2] = test system: eggs of the corn rootworm (Diabrotica undecimpunctata); experiment: Example E: eggs of corn rootworm, Petri dish with maize corn; settings: 500 ppm or less, after 6 days
Experimental: as §1
A Petri dish, half of whose bottom was covered with filter paper and which contained a germinated maize corn on a moist cotton pad, was prepared. About 50, 4-5 day-old eggs of the corn rootworm (Diabrotica undecimpunctata) were transferred onto the filter paper. Three drops of 200 μl of an aqueous solution of the formulated preparation to be examined were pipetted onto the eggs, and the rest was pipetted onto the maize corn. The Petri dish was closed and then stored at about 25° C. in a climatized chamber. After 6 days of storage, the effect of the preparation on the eggs and any larvae which may have hatched from these (mortality) was determined. The following examples were active: No. 7.

[3] = test system: L1 larvae of the codling moth (Carpocapsa pomonella); experiment: Example J: codling moth L1 larvae on treated culture medium; settings: 500 ppm or less, after 14 days
Experimental: as §1
Culture medium was mixed with an aqueous solution of the formulated preparation to be examined and populated with 10 L1 larvae of the codling moth (Carpocapsa pomonella). After 14 days of storage at about 23° C., the effect of the preparation on the larvae (mortality) was determined. The following examples were active: Nos. 28, 59.

[4] = test system: L2 larvae of the sugar beet armyworm (Spodoptera exigua); experiment: Example I: sugar beet armyworm L2 larvae on sprayed cotton leaves; settings: 500 ppm or less, after 4 days
Experimental: as §1
Cotton plants were sprayed with an aqueous solution of the formulated preparation to be examined. After drying, leaves were cut off, placed into a Petri dish and populated with 5 L2 larvae of the sugar beet armyworm (Spodoptera exigua). After 4 days of storage at about 23° C., the effect of the preparation on the larvae (mortality) was determined. The following examples were active: Nos. 27, 28, 45, 59.

[5] = test system: eggs of the American tobacco budworm (Heliothis virescens); experiment: Example C: eggs of American tobacco budworm, Petri dish with culture medium; settings: 500 ppm or less; eggs dipped 5 seconds, 200 μl on culture medium; after 6 days
Experimental: as §1
A Petri dish whose bottom was covered with filter paper and which contained about 5 ml of culture medium was prepared. Pieces of filter paper with about 30, one-day-old eggs of the American tobacco budworm (Heliothis virescens) were dipped for 5 seconds into an aqueous solution of the formulated preparation to be examined and subsequently placed in a Petri dish. A further 200 μl of the aqueous solution were spread over the culture medium. The Petri dish was closed and then stored at about 25° C. in a climatized chamber. After 6 days of storage, the effect of the preparation on the eggs and any larvae which may have hatched from these (mortality) was determined. The following examples were active: Nos. 6, 27, 28, 29, 31, 35, 39, 43, 45, 59, 97, 226, 227, 228, 229, 351, 356, 357, 592, 593, 595, 949, 1001, 1126, 1129, 1132.

[6] = test system: L2 larvae of the Egyptian cotton leaf worm (Spodoptera littoralis); experiment: Example D: L2 larvae of Egyptian cotton leaf worm, Petri dish with culture medium; settings: 500 ppm or less, after 6 days
Experimental: as §1
A Petri dish whose bottom was covered with filter paper and which contained about 5 ml of culture medium was prepared. Five L2 larvae of the Egyptian cotton leaf worm (Spodoptera littoralis) were counted into small beakers. 200 μl of an aqueous solution of the formulated preparation to be examined were pipetted into the beaker. The treated larvae were then poured into the Petri dish, and a further 200 μl of the aqueous solution were distributed over the culture medium. The Petri dish was closed and then stored at about 25° C. in a climatized chamber. After 6 days of storage, the effect of the preparation on the larvae (mortality) was determined. The following examples were active: Nos. 27, 28, 29, 39, 43, 45, 59.

[7] = test system: larvae of the diamondback moth (Plutella xylostella); experiment: Example L: diamondback moth larvae on sprayed cabbage leaf; settings: 500 ppm or less, after 4 days
Experimental: as §1
A cabbage leaf was sprayed with an aqueous solution of the formulated preparation to be examined. After drying, the treated leaf was populated with larvae of the diamondback moth (Plutella xylostella). After 4 days of storage at about 25° C., the effect of the preparation on the larvae (mortality) was determined. The following examples were active: Nos. 27, 28, 45.

COC(=O)c1cc(OCC=C(Cl)Cl)cc(Cl)c1OCCCc1ccc(Cl)cc1 [compound 7]
active: nematicidal contact action / nematicidal soil drench action [1] | effect of the preparation on the eggs and any larvae hatched (mortality) [2]

CC(=NO)c1cc(OCC=C(Cl)Cl)cc(Cl)c1OCCCOc1ccc(C(F)(F)F)cn1 [compound 28]
active: effect of the preparation on the larvae (mortality) [3] | effect of the preparation on the larvae (mortality) [4] | effect of the preparation on the eggs and any larvae hatched (mortality) [5] | effect of the preparation on the larvae (mortality) [6] | effect of the preparation on the larvae (mortality) [7]
